From patent publication US8034818B2, “Therapeutic uses of derivatives of piperidinyl- and piperazinyl-alkyl carbamates” (Sanofi-Aventis, priority 2004, dated 2011)
Structures can show the parent of a compound that is named as a salt.

Key:
male OF1 mice = test: test of analgesia: abdominal tractions induced with PBQ (phenylbenzoquinone) i.p.; assay type: in vivo, mouse; conditions: PBQ 2 mg/kg i.p.
Protocol: The in vivo activity of the compounds of the invention was evaluated in a test of analgesia.
Thus, the intraperitoneal (i.p.) administration of PBQ (phenylbenzoquinone, 2 mg/kg in 0.9% sodium chloride solution containing 5% ethanol) to male OF1 mice weighing 25 to 30 g, causes abdominal tractions, on average 30 torsions or contractions during the period of 5 to 15 minutes after injection. The test compounds are administered orally or intraperitoneally as a 0.5% suspension in Tween 80, 60 minutes or 120 minutes before the administration of PBQ. Under these conditions, the most powerful compounds of the invention produce a 35% to 70% reduction in the number of tractions induced with PBQ, within a dose range of between 1 and 30 mg/kg.

For `CNC(=O)COC(=O)NCCC1CCN(c2cccc(C)n2)CC1` [Compound 47, 2-(Methylamino)-2-oxoethyl 2-[1-(6-methyl-2-pyridyl)-4-piperidyl]ethylcarbamate hydrochloride], the “Reduction in the number of tractions (%)” value (male OF1 mice; (b) 3 mg/kg p.o. at 1 hour) was −63% (b).
For `CNC(=O)COC(=O)NCCC1(F)CCN(c2ccc3ccccc3n2)CC1` [Compound 128, 2-(Methylamino)-2-oxoethyl 2-[4-fluoro-1-(2-quinolyl)-4-piperidyl]ethylcarbamate], the melting point was 147 to 149 °C.
Work on `NC(=O)COC(=O)NCCC1CCN(c2nccc3cc(F)ccc23)CC1` [Compound 158, 2-Amino-2-oxoethyl 2-[1-(6-fluoro-1-isoquinolyl)-4-piperidyl]ethylcarbamate] yielded a melting point of 135 to 139 °C.
In the case of `CNC(=O)COC(=O)NCCC1CCN(c2cncc3ccccc23)CC1` (as salt: hydrochloride) [Compound 172, 2-(Methylamino)-2-oxoethyl 2-[1-(4-isoquinolyl)-4-piperidyl]ethylcarbamate hydrochloride], the melting point is reported as 205 to 210 °C.
`NC(=O)COC(=O)NCCC1CCN(c2ccc3cc(Cl)ccc3n2)CC1` [Compound 137, 2-Amino-2-oxoethyl 2-[1-(6-chloro-2-quinolyl)-4-piperidyl]ethylcarbamate] showed a melting point of 189 to 191 °C.
For `CNC(=O)COC(=O)NCCN1CCN(c2cccc3ccccc23)CC1` (as salt: hydrochloride) [Compound 38, 2-(Methylamino)-2-oxoethyl 2-[4-(1-naphthyl)-1-piperazinyl]ethylcarbamate hydrochloride], the melting point was 166 °C.
In the case of `CNC(=O)COC(=O)NCCC1CCN(c2ccc3c(Cl)cccc3n2)CC1` [Compound 130, 2-(Methylamino)-2-oxoethyl 2-[1-(5-chloro-2-quinolyl)-4-piperidyl]ethylcarbamate], the melting point is reported as 158 to 162 °C.
With `CNC(=O)COC(=O)NCCC1CCN(c2cc3ccccc3cn2)CC1` [Compound 166, 2-(Methylamino)-2-oxoethyl 2-[1-(3-isoquinolyl)-4-piperidyl]ethylcarbamate] the “Reduction in the number of tractions (%)” value (male OF1 mice; (a) 1 mg/kg p.o. at 2 hours) was −62% (a) and the melting point was 156 to 158 °C.
`CNC(=O)COC(=O)NCCC1CCN(c2cccc(CC(C)C)n2)CC1` [Compound 49, 2-(Methylamino)-2-oxoethyl 2-[1-(6-isobutyl-2-pyridyl)-4-piperidyl]ethylcarbamate] gave a melting point of 97 to 99 °C.
`CNC(=O)COC(=O)NCCC1CCN(c2cccc(C)n2)CC1` (as salt: hydrochloride) [Compound 47, 2-(Methylamino)-2-oxoethyl 2-[1-(6-methyl-2-pyridyl)-4-piperidyl]ethylcarbamate hydrochloride] gave a melting point of 95 to 100 °C.
With `CNC(=O)COC(=O)NCC1CCN(c2nccc3ccccc23)CC1` (as salt: hydrochloride) [Compound 154, 2-(Methylamino)-2-oxoethyl [1-(1-isoquinolyl)-4-piperidyl]methylcarbamate hydrochloride] the melting point was 208 to 212 °C (dec.).
Work on `NC(=O)COC(=O)NCCC1CCN(c2cccc(C(F)(F)F)c2)CC1` [Compound 44, 2-Amino-2-oxoethyl 2-{1-[3-(trifluoromethyl)phenyl]-4-piperidyl}ethylcarbamate] yielded a melting point of 140 to 142 °C.
For `CNC(=O)COC(=O)NCCC1CCN(c2ccc3ccccc3n2)CC1` [Compound 126, 2-(Methylamino)-2-oxoethyl 2-[1-(2-quinolyl)-4-piperidyl]ethylcarbamate], the “Reduction in the number of tractions (%)” value (male OF1 mice; (b) 3 mg/kg p.o. at 1 hour) was −43% (b) and the melting point was 125 to 128 °C.
For `NC(=O)COC(=O)NCC1CCN(c2cccc(-c3ccccc3)n2)CC1` [Compound 58, 2-Amino-2-oxoethyl 2-[1-(6-phenyl-2-pyridyl)-4-piperidyl]methylcarbamate], the melting point was 131 to 132 °C.
With `NC(=O)COC(=O)NCCC1CCN(c2ccc3ccccc3n2)CC1` [Compound 127, 2-Amino-2-oxoethyl 2-[1-(2-quinolyl)-4-piperidyl]ethylcarbamate] the melting point was 135 to 137 °C.
